In patent US6451800B1, “Phenylpiperazine derivatives as integrin αvβ3 antagonists” (Meiji Seika Kaisha, Ltd., priority 1998, dated 2002):

Assays:
GP IIb/IIIa = GP IIb/IIIa (Homo sapiens, UniProt P05106+P08514); experiment: GP IIb/IIIa antagonistic activity (method of Pharmacological Test 2 in WO 94/21599); format: binding
Experimental: (§1) GP IIb/IIIa Antagonistic Activity and Human Platelet Aggregation Inhibitory Activity
GP IIb/IIIa antagonistic activity was measured for the compounds according to the present invention. The measurement of the GP IIb/IIIa antagonistic activity was carried out according to the method described in Pharmacological Test 2 in WO 94/21599.

mice = experiment: Acute toxicity test, intravenous administration to mice; format: in vivo; settings: 12.5 mg/kg
Source text: The compound of Example 3 was intravenously administered to mice.

[1] = test system: human platelet aggregation; experiment: Human platelet aggregation inhibitory activity (method of Pharmacological Test 1 in WO 94/21599); format: cell-based
Experimental: as §1
Human platelet aggregation inhibitory activity was measured for the compounds according to the present invention. The measurement of the human platelet aggregation activity was carried out according to the method described in Pharmacological Test 1 in WO 94/21599.

Oral absorption in rats = format: in vivo; settings: data not shown
Source text: Therefore, any of the compounds, wherein R^9 represents an alkyl group or a hydrogen atom, can be used in the treatment of the above diseases.

[2] = target: T1, integrin αvβ3 (vitronectin receptor purified from the human placenta) (Homo sapiens, UniProt P05106+P06756); experiment: αvβ3 binding assay (vitronectin-vitronectin receptor binding assay); settings: vitronectin receptor from human placenta; read-out: IC50, inhibition of binding between vitronectin and vitronectin receptor (αvβ3 binding inhibitory activity)
T1 construct: a vitronectin receptor (protein content: 118 μg/ml) purified from the human placenta; from tissue; host or cells: human placenta
Experimental: Integrin αvβ3 antagonistic activity was measured for the compounds according to the present invention in a vitronectin-vitronectin receptor binding assay system in accordance with the method of Kouns et al. (W. C. Kouns, D. Kirchhofer, P. Hadvary, A. Edenhofer, T. Weller, G. Pfenninger, H. R. Baumgartner, L. K. Jennings and B. Steiner, Blood, 8, 2539-2547 (1992)).
Specifically, a vitronectin receptor (protein content: 118 μg/ml) purified from the human placenta in accordance with the method of Pytela et al. (R. Pytela, M. D. Pierschbacher, S. Argraves, S. Suzuki, and E. Ruoslahti, Method in Enzymology, 144, 475-489 (1987)) was diluted 50 times with TBS (20 mM Tris-HCl, 150 mM NaCl, 1 mM CaCl2, 1 mM MgCl2, pH 7.4), and distributed and coated on wells (50 μl/well) of a plate (Maxisorp, Nunc, 96 well Immuno Plate). The plate was then allowed to stand at 4° C. for 1 day, washed twice with TBS (200 μl/well), and then subjected to blocking with TBS (150 μl/well) containing 1% bovine serum albumin (SIGMA) at 4° C. overnight. After washing twice with TBS (200 μl/well), 50 μl of vitronectin (CALBIOCHEM) adjusted to 0.2 μg/ml by the addition of TBS (TBS-Tween) containing 0.01% Tween-20 was mixed with 50 μl of each test compound adjusted to each concentration in wells, and a reaction was allowed to proceed at room temperature for 4 hr. After the completion of the reaction, the wells were washed five times with TBS-Tween. A solution prepared by diluting anti-vitronectin rabbit antiserum (CHEMICON) 500 times with TBS-Tween was added as a primary antibody in an amount of 50 μl per well, and a reaction was allowed to proceed at room temperature for 1.5 hr. After washing five times with 200 μl/well of TBS-Tween, a peroxidase (POD)-labeled anti-rabbit IgG antibody solution (CAPPEL) diluted 500 times with TBS-Tween was added as a secondary antibody in an amount of 50 μl/well, and a reaction was allowed to proceed at room temperature for 1.5 hr. After washing five times with TBS-Tween (200 μl /well), ABTS (2,2′-azino-bis(3-ethylbenzthiazoline-6-sulfonic acid), SIGMA) was adjusted to 1 mg/ml by the addition of a ten-fold diluted POD-buffer (ZYMED), and added in an amount of 50 μl/well, and a reaction was allowed to proceed for 5 to 10 min. A 0.1 M citric acid buffer (pH 4.3) containing 0.05% NaN3 was added in an amount of 50 μl/well to stop the reaction, followed by the measurement of the absorbance at 415 nm with a microplate reader (MTP 32, Corona Electric) (reference: 675 nm). The total binding was defined as the absorbance after a reaction using 50 μl of TBS-Tween instead of the test compound, and the non-specific binding (100% inhibition) was defined as the absorbance after a reaction using 50 μl of TBS-Tween containing 2×10^−3 M RGDS. The inhibition was calculated by the following equation: [formula]
IC50 was determined from a primary regression line of the logarithm of each concentration of the test compound and the logarithm of (100−inhibition)/inhibition.

[3] = test system: human vascular smooth muscle cells; experiment: Inhibition of adhesion of human vascular smooth muscle cells to immobilized human vitronectin; format: cell-based; settings: read-out: IC50, inhibitory activity against the adhesion of human vascular smooth muscle cells to vitronectin
Experimental: Inhibitory Activity Against Adhesion of Human Vascular Smooth Muscle Cells to Vitronectin
The adhesion of human vascular smooth muscle cells to immobilized human vitronectin was measured in accordance with the method of Liaw et al. (Liaw L, Almeida M, Hart C E, Schwartz S M, and Giachelli C M, Circulation Research, 74 (2), 214-224 (1994)).
A Dulbecco's phosphate buffer (Dulbecco's PBS(−), Nissui Pharmaceutical Co., Ltd.) solution of human plasma-derived vitronectin (CALBIOCHEM) adjusted to a concentration of 4 μg/ml was first added to wells (50 μl/well) of a microplate (Maxisorp, Nunc), and a reaction for immobilization was allowed to proceed at 4° C. overnight. […]
Next, 50 μl of a Dulbecco's modified Eagle's basal medium containing 10 mg/ml of bovine serum albumin with a medicament added thereto was added to the wells of the human vitronectin-coated assay microplate, followed by pre-cultivation under 5% carbon dioxide at 37° C. for 10 min. […] The absorbance of the microplate thus obtained was measured at 595 nm. […] The inhibition was calculated by the following equation. IC50 was determined from a primary regression line of the logarithm of each concentration of the test compound and the logarithm of (100−inhibition)/inhibition. […]

Chain of GP IIb/IIIa (P08514 32-887 limits assumed): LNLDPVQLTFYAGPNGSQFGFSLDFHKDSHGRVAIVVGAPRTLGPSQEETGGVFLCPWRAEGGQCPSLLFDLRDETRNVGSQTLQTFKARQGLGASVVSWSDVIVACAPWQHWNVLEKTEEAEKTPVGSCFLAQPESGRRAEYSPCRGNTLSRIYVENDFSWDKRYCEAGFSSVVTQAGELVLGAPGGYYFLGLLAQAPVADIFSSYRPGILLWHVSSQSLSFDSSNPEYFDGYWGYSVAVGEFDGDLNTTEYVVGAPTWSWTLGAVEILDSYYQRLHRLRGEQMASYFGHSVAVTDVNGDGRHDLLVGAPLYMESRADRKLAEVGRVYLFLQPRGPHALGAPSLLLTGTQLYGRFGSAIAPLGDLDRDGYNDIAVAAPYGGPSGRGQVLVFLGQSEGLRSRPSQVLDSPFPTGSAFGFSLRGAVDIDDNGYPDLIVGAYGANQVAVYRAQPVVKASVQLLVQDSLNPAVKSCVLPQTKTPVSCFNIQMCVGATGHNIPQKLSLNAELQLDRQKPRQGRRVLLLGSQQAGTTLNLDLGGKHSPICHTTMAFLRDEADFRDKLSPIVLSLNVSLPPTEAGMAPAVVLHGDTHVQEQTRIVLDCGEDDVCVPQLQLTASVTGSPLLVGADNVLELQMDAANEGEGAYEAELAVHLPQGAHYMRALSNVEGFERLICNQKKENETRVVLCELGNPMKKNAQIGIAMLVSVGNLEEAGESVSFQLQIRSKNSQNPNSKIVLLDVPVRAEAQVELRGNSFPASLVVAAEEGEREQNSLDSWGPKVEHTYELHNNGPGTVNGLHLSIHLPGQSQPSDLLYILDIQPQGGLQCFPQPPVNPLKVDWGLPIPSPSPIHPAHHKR
Chain of GP IIb/IIIa (P08514 891-1039 partner limits assumed): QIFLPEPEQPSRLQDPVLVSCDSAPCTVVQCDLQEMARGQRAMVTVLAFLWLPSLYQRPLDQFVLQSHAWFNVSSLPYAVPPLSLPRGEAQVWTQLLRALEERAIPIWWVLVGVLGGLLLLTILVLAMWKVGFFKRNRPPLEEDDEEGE
Chain of GP IIb/IIIa (P05106 27-788): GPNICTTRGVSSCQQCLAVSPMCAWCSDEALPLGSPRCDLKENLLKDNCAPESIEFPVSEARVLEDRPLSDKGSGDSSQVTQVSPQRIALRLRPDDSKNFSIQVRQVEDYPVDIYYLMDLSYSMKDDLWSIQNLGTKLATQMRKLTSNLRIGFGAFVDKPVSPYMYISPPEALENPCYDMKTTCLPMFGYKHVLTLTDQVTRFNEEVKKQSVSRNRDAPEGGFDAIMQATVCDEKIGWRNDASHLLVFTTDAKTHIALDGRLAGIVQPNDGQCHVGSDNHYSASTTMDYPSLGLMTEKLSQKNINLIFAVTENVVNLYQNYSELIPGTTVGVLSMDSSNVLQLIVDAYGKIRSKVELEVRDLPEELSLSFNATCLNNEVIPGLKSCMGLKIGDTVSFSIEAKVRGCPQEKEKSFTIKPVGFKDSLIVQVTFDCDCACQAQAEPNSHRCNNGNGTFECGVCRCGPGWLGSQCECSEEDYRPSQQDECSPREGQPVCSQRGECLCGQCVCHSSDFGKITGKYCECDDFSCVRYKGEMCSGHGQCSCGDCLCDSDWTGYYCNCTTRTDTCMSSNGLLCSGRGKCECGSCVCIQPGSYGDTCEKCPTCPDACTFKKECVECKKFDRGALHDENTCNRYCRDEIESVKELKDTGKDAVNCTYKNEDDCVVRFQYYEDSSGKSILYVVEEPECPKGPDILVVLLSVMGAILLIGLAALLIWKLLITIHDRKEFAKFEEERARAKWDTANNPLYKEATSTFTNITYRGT
T1 sequence (P06756 31-889 limits assumed): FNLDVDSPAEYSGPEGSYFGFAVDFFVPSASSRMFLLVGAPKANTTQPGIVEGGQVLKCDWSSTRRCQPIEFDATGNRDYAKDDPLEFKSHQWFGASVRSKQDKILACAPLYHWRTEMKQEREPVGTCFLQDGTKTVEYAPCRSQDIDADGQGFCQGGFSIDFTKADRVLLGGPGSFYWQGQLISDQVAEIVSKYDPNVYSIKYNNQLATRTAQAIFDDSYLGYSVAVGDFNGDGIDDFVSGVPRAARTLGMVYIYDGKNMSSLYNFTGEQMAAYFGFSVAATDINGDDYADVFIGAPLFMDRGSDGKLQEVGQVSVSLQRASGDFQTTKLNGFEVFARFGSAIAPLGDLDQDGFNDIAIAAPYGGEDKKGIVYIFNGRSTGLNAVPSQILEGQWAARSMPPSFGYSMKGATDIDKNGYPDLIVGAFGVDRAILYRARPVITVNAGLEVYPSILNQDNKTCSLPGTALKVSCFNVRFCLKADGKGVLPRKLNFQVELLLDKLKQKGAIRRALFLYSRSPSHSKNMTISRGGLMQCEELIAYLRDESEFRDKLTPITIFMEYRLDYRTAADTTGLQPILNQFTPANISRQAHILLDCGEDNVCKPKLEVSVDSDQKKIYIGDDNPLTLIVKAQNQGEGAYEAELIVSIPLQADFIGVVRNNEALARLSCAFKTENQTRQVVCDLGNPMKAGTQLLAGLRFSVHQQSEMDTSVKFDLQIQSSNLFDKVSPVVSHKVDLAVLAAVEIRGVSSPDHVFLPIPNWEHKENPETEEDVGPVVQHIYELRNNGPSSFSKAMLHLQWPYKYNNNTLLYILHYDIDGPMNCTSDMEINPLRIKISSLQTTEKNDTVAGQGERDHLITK
T1 sequence (P06756 891-1048 partner limits assumed): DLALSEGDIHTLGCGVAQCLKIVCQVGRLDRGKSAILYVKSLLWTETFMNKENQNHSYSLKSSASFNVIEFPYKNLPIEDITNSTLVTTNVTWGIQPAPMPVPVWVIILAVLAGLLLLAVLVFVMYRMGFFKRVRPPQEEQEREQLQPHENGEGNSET
T1 sequence (P05106 27-788): as the sequence (P05106 27-788) above

Structure (SMILES)	GP IIb/IIIa antagonistic activity (in words) (GP IIb/IIIa)	acute toxicity, symptoms (mice)	human platelet aggregation inhibition (in words) [1]	IC50 ([1]; read-out: IC50, human platelet aggregation inhibition)	oral absorption (Oral absorption in rats)	IC50 [2]	IC50 [3]
O=C(NC[C@H](NS(=O)(=O)c1ccccc1)C(=O)O)c1ccc(N2CCN(C3=NCCCN3)CC2)cc1 [Example 3, (2S)-Benzenesulfonylamino-3-[4-{4-(1,4,5,6-tetrahydropyrimidin-2-yl)-piperazin-1-yl}-benzoylamino]-propionic acid]	extremely high GP IIb/IIIa antagonistic activity	no special symptom was developed	very strongly inhibited human platelet aggregation	34 nM	excellent oral absorption	–	–
O=C(N[C@@H](CNC(=O)c1ccc(N2CCN(C3=NCCCN3)CC2)cc1)C(=O)O)OCc1ccccc1 [Example 30, (2S)-Benzyloxycarbonylamino-3-[4-{4-(1,4,5,6-tetrahydropyrimidin-2-yl)-piperazin-1-yl}-benzoylamino]-propionic Acid]	–	–	–	–	–	31 nM	750 nM
